# According to paper PMC10053003, “Study on Pharmacokinetics and Metabolic Profiles of Novel Potential PLK-1 Inhibitors by UHPLC-MS/MS Combined with UHPLC-Q-Orbitrap/HRMS” (Molecules, 2023):
# Like-named read-outs stand apart in the source and are kept apart here.
# Experiments:
# [1] = type: in vitro ADME; conditions: incubation of 7a in rat liver microsomes with NADPH
# Procedure: Liver microsomes were used to investigate the metabolism clearance of 7a. In addition, 5 µL of rat liver microsome (20 mg/mL), 2 µL of 7a or onvansertib (100 µM), and 173 µL of PBS buffer (0.1 M, pH 7.4) were added to 1.5 mL Eppendorf tubes. After pre-incubation for 10 min at 37 °C, the reaction was initiated by adding an NADPH-generating system (20 µL) into the microsomal suspension. A system without NADPH was set as a negative control. After incubations for 10 min, 30 min, or 60 min, 400 µL of ice acetonitrile was added to quench the reaction. The supernatants were injected into Q Exactive ™ combined quadrupole Orbitrap mass spectrometer (Thermo Scientific, Waltham, MA, USA) for metabolite profiling and identification. The concentration of the compound to be measured at 0 min was defined as 100%, and the concentration at other times was converted into a residual percentage.
# [2] = type: in vitro ADME, human; conditions: for HLM (%) relative abundance (area ratio): incubation of 7a in human liver microsomes with NADPH
# PLK1 kinase = biological target: T1, PLK1 kinase (Homo sapiens, UniProt P53350); test: PLK1 kinase inhibition activity; type: biochemical
# T1 construct: purchased CarnaBio 05–157
# T1 sequence (P53350 whole entry): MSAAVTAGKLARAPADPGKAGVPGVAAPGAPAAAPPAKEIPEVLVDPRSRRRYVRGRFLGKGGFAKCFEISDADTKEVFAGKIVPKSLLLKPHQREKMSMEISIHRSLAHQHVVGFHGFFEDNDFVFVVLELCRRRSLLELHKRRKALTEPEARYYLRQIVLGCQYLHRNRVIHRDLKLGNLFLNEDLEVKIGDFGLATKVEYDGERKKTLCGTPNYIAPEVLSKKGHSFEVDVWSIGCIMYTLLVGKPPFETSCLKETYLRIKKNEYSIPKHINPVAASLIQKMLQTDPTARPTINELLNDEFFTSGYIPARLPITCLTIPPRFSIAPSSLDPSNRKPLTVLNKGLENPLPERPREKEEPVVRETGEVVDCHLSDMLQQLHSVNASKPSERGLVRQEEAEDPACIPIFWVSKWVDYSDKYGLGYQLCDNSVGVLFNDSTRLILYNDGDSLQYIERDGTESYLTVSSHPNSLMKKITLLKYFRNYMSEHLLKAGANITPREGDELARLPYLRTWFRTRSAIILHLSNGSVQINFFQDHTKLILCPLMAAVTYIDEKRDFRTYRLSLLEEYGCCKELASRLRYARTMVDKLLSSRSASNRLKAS
# Procedure: The compounds were diluted at a 1:3 ratio on a 384-well plate with the highest concentration of 1 μM, and a total of 10 concentration points were tested. The mixture of PLK1 kinase and peptide substrate (5 μL) was added to each well. […] The results were tested by EnVision and analyzed using XLFIT5 software.
# HCT-116 cells = test: Cell proliferation inhibition, HCT-116 (ATPlite); type: cell-based; conditions: Homo sapiens, 72 h incubation, read-out: HCT-116 IC50 (cell viability)
# Procedure: (§1) HCT-116 or NCI-H2030 cells were seeded in 96-well plates at a density of 720/well and cultured overnight in a 5% CO2 incubator at 37 ± 1 °C. The compounds were diluted and added at a ratio of 1:3. After incubation for 72 h, ATPlite 1step Luminescence was added and incubated in the dark for 3 min, then was vortexed at 500 rpm for 2 min, and the luminous intensity was detected by the microplate reader and the cell inhibition was calculated as follows:Inhibition (%) = 100 − (Lum compound − Lum medium)/(Lum control − Lum medium) × 100%
# NCI-H2030 cells = test: Cell proliferation inhibition, NCI-H2030 (ATPlite); type: cell-based; conditions: Homo sapiens, 72 h incubation, read-out: NCI-H2030 IC50 (cell viability)
# Procedure: as §1
# [3] = Stability of 7a in rat plasma (QC samples, UHPLC-MS/MS); type: in vitro ADME
# Procedure: QC samples were stored under different conditions, such as room temperature for 4 h, frozen-thawed for 3 cycles, frozen at −20 °C for 7 days, or stored in an auto-sampler for 24 h. The sample concentrations were calculated by the following calibration curve. The RE (%) and RSD (%) should be less than ±15%.
# [4] = Pharmacokinetic study in rats after oral administration; type: in vivo, Sprague-Dawley rats; conditions: for Cmax / Tmax / half-life / bioavailability / AUC(0-t): Sprague-Dawley, rat, plasma; for AUC(0-t): read-out: AUC0–24h
# Procedure: Sprague-Dawley rats (8 weeks old, 180–220 g) were provided by Pengyue Laboratory Animal Technology Co., Ltd (Jinan, Shandong, China). All rats were fed adaptively for 1 week (20 °C–24 °C, 50%–70% relative humidity, 12/12 h light/dark cycle). A standard diet and boiled water were provided. The rats fasted for over 12h with free access to water before the study. Furthermore, 7a was dissolved DMSO (5%) and then diluted with saline. The rats were given 7a by gavage at 5 mg/kg and 30 mg/kg. In addition, 200 μL of blood was collected into a 1.5 mL tube added with heparin at 5 min, 15 min, 30 min, 1 h, 2 h, 4 h, 6 h, 8 h, 10 h, and 24 h after administration. Plasma was acquired by centrifugation (8000 rpm, 5 min) and all samples were immediately stored at −20 °C immediately. The guidelines of the Animal Ethics Committee of Luye Pharma Group Ltd. were strictly enforced during the animal experiments to ensure animal welfare.
# (§2) The main pharmacokinetic parameters were calculated using Phoenix WinNonlin 7.0 via a non-compartmental model (Pharsight, Mountain View, CA). […] Data were presented as mean ± SD.
# [5] = Pharmacokinetics in rats after intravenous administration; type: in vivo; conditions: Sprague-Dawley, rat, plasma, i.v. 1 mg/kg
# Procedure: The pharmacokinetic characteristics of 7a were then evaluated successfully with the validated UHPLC-MS/MS method. […] The AUC0–24h was about 517 and 3192 h × nmol/L at the doses of 5 and 30 mg/kg, respectively. The tmax was approximately 2 h, and t1/2 was 5 h. In the dose range of 5–30 mg/kg, the pharmacokinetics of 7a were almost linear. The mean plasma concentration-time curve of 7a after a single intravenous administration (1 mg/kg) and the major pharmacokinetic parameters can be found in Figure S14 and Table S1.
# as §2
# Figure S12. 19F NMR (400 MHz, DMSO) of compound 7a: δ -56.89 ppm.
# Figure S13. Mass spectrum of compound 7a (m/z 500.2).
# Figure S14. Mean concentration-time curves of compound 7a after intravenous administration in rats (1 mg/kg).
# Data were presented as mean ± SD, n=3.
# Table S1. Main pharmacokinetics parameters of compound 7a after intravenous administration (mean ± SD, n=3).
# T (h) C0 AUC0-t V (L/kg) Cl(L/h/kg) […]
# [6] = autosampler 4 °C for 24 h, nominal 3 nM
# [7] = autosampler 4 °C for 24 h, nominal 300 nM
# [8] = autosampler 4 °C for 24 h, nominal 750 nM
# [9] = rat plasma, freeze −20 °C for 7 days, nominal 3 nM
# [10] = rat plasma, freeze −20 °C for 7 days, nominal 300 nM
# [11] = rat plasma, freeze −20 °C for 7 days, nominal 750 nM
# [12] = rat plasma, freeze-thaw for 3 cycles, nominal 3 nM
# [13] = rat plasma, freeze-thaw for 3 cycles, nominal 300 nM
# [14] = rat plasma, freeze-thaw for 3 cycles, nominal 750 nM
# [15] = rat plasma, room temperature for 4 h, nominal 3 nM
# [16] = rat plasma, room temperature for 4 h, nominal 300 nM
# [17] = rat plasma, room temperature for 4 h, nominal 750 nM
# [18] = both sexes, oral 5 mg/kg, mean of male and female rats
# [19] = both sexes, oral 30 mg/kg, mean of male and female rats
# [20] = both sexes, oral, rats, doses 5–30 mg/kg, overall statement
smiles,measurement,setting,value
Cn1c(-c2ccnc(Nc3cc(N4CCNCC4)ccc3OC(F)(F)F)n2)cc2c(=O)[nH]ccc21 [M2],RLM (%) relative abundance (area ratio),[1],6.53%
same,HLM (%) relative abundance (area ratio),[2],34.76%
"CN1CCN(c2ccc(OC(F)(F)F)c(Nc3nccc(-c4cc5c(=O)[nH]ccc5n4C)n3)c2)CC1 [compound 7a, 1-methyl-2-(2-((5-(4-methylpiperazin-1-yl)-2-(trifluoromethoxy)phenyl)amino)pyrimidin-4-yl)-1,5-dihydro-4H-pyrrolo[3,2-c] pyridin-4-one]",IC50,PLK1 kinase,0.89 nM
same,"PLK-1 activity and cytotoxicity, times higher than compound 25",PLK1 kinase; relative to compound 25,more than 4 times
same,IC50,HCT-116 cells,30.6 nM
same,IC50,NCI-H2030 cells,38.5 nM
same,Measured Concentrations,[3]; [6],3.05 ± 0.10 nM
same,RE (stability),[3]; [6],1.78%
same,Measured Concentrations,[3]; [7],280 ± 11.9 nM
same,RE (stability),[3]; [7],−6.67%
same,Measured Concentrations,[3]; [8],701 ± 46.5 nM
same,RE (stability),[3]; [8],−6.58%
same,Measured Concentrations,[3]; [9],2.55 ± 0.13 nM
same,RE (stability),[3]; [9],−14.9%
same,Measured Concentrations,[3]; [10],272 ± 9.67 nM
same,RE (stability),[3]; [10],−9.33%
same,Measured Concentrations,[3]; [11],685 ± 34.7 nM
same,RE (stability),[3]; [11],−8.71%
same,Measured Concentrations,[3]; [12],2.73 ± 0.21 nM
same,RE (stability),[3]; [12],−9.17%
same,Measured Concentrations,[3]; [13],260 ± 10.8 nM
same,RE (stability),[3]; [13],−13.4%
same,Measured Concentrations,[3]; [14],649 ± 24.2 nM
same,RE (stability),[3]; [14],−13.5%
same,Measured Concentrations,[3]; [15],2.59 ± 0.17 nM
same,RE (stability),[3]; [15],−13.7%
same,Measured Concentrations,[3]; [16],261 ± 4.94 nM
same,RE (stability),[3]; [16],−13%
same,Measured Concentrations,[3]; [17],649 ± 17.9 nM
same,RE (stability),[3]; [17],−13.4%
same,Cmax,"[4]; oral 5 mg/kg, female rats",102 ± 25 nM
same,Tmax,"[4]; oral 5 mg/kg, female rats",0.8 ± 1 h
same,half-life,"[4]; oral 5 mg/kg, female rats",4.6 ± 1.4 h
same,bioavailability,"[4]; oral 5 mg/kg, female rats, read-out: F",19.9%
same,Cmax,"[4]; oral 5 mg/kg, male rats",87 ± 45 nM
same,Tmax,"[4]; oral 5 mg/kg, male rats",3 ± 2.6 h
same,half-life,"[4]; oral 5 mg/kg, male rats",4.4 ± 0.9 h
same,bioavailability,"[4]; oral 5 mg/kg, male rats, read-out: F",23.9%
same,Cmax,"[4]; oral 30 mg/kg, female rats",428 ± 90 nM
same,Tmax,"[4]; oral 30 mg/kg, female rats",2.3 ± 1.5 h
same,half-life,"[4]; oral 30 mg/kg, female rats",6.1 ± 0.9 h
same,bioavailability,"[4]; oral 30 mg/kg, female rats, read-out: F",22.3%
same,Cmax,"[4]; oral 30 mg/kg, male rats",435 ± 81 nM
same,Tmax,"[4]; oral 30 mg/kg, male rats",2 ± 1.9 h
same,half-life,"[4]; oral 30 mg/kg, male rats",3.7 ± 1.3 h
same,bioavailability,"[4]; oral 30 mg/kg, male rats, read-out: F",22.7%
same,AUC(0-t),"[4]; both sexes, po, 5 mg/kg, oral 5 mg/kg, mean of male and female rats",~0.517 µM·h
same,AUC(0-t),"[4]; both sexes, po, 30 mg/kg, oral 30 mg/kg, mean of male and female rats",~3.19 µM·h
same,bioavailability,"[4]; both sexes, po, rats, overall statement, read-out: oral bioavailability (F)",~22%
same,Cmax,[4]; [18],95 ± 33 nM
same,Tmax,[4]; [18],1.9 ± 2.1 h
same,half-life,[4]; [18],4.5 ± 1.1 h
same,bioavailability,"[4]; both sexes, oral 5 mg/kg, mean of male and female rats, read-out: F",21.9%
same,Cmax,[4]; [19],432 ± 77 nM
same,Tmax,[4]; [19],2.2 ± 1.6 h
same,half-life,[4]; [19],5.1 ± 1.6 h
same,bioavailability,"[4]; both sexes, oral 30 mg/kg, mean of male and female rats, read-out: F",22.5%
same,Tmax,[4]; [20],~2 h
same,half-life,[4]; [20],5 h
same,AUC(0-t),"[4]; female, po, 5 mg/kg, oral 5 mg/kg, female rats",0.469 ± 0.064 µM·h
same,AUC(0-t),"[4]; female, po, 30 mg/kg, oral 30 mg/kg, female rats",3.16 ± 1.02 µM·h
same,AUC(0-t),"[4]; male, po, 5 mg/kg, oral 5 mg/kg, male rats",0.565 ± 0.132 µM·h
same,AUC(0-t),"[4]; male, po, 30 mg/kg, oral 30 mg/kg, male rats",3.22 ± 1.04 µM·h
same,AUC0–24h,"[4]; oral 30 mg/kg, mean of male and female rats, 30 mg/kg",3.192 ± 0.922 µM·h
same,AUC(0-t),[5],0.472 ± 0.032 µM·h
same,C0,[5],481 ± 42 nM
same,clearance,[5],70 mL/min/kg
same,half-life,[5],2.4 ± 0.6 h
same,Vd,[5]; read-out: Vss,8.5 ± 1.3 L/kg
same,RLM (%) relative abundance (area ratio),[1],5.34%
same,stability of the parent in HLM,[2]; human liver microsomes,stable
same,HLM (%) relative abundance (area ratio),[2],43.73%
"CN1CCN(c2ccc(OC(F)(F)F)c(Nc3nccc(-c4cc5c(n4C)CCNC5=O)n3)c2)CC1 [compound 25, reference compound]",IC50,PLK1 kinase; read-out: PLK1 inhibition IC50,4.07 nM
same,IC50,HCT-116 cells,62.8 nM
same,IC50,NCI-H2030 cells,74.7 nM
